test system: human embryonic stem cell derived neural stem cells (NSCs); experiment: Neurogenesis assay: neural stem cell proliferation assay; details: 96 h, compound concentration at which 150% activity of control (100%) is reached, increase in cells based on ATP levels (CellTiterGlo), 4 days incubation, dose response 8 μM to 8 nM
Experimental: Neural Stem Cell Proliferation Assay
Neurogenic properties of small molecules are determined based on the proliferation of human embryonic stem cell derived neural stem cells (NSCs) which were derived via a dual smad inhibition as previously described (Chambers, S. M., et al., Highly efficient neural conversion of human ES and iPS cells by dual inhibition of SMAD signaling, Nature biotechnology, 2009 27(3): p. 275-80.).
Compounds response is measured by the increase in cells based on ATP levels (Promega:CellTiterGlo®) after an incubation period of 4 days. NSCs are thawed and expanded over 3 passages. On the 14th day, NSCs are seeded in Polyornithin/Laminin coated 384 well plates at a cell density of 21,000 cells/cm^2 in a media volume of 38 μl.
4 hours after cell seeding, compound solutions are added at a volume of 2 μl. Stock solutions of the compounds (water, 5% DMSO) are diluted to obtain a dose response (11 points, dilution factor is 2), ranging from 8 μM to 8 nM. Controls are run to consistently determine the neurogenic properties of the cells:
Negative (neutral) control is cell culture Media (final DMSO concentration: 0.25%).
1. cell culture Media+100 ng/ml FGF2 (final DMSO concentration: 0.1%)
2. cell culture Media+20 ng/ml EGF (final DMSO concentration: 0.1%)
3. cell culture Media+100 ng/ml Wnt3a (final DMSO concentration: 0.1%)
After 4 days incubation at 37° C., 5% CO2, the amount of ATP per well is quantified. The ATP concentration is proportional to the cell number. ATP is quantified by using the Promega CellTiterGlo® kit. The CellTiterGlo® reagents contain a cell lysis buffer, a thermo stable luciferase (UltraGlo™ recombinant luciferase), magnesium and luciferin. Luciferin reacts with ATP producing oxyluciferin, AMP and light. The luminescence signal is proportional to the ATP content.
The value of negative (neutral) control is determined for each assay plate by taking the average of 16 negative control wells. The neurogenic compound response is calculated for each compound as (compound/Negative Control)*100. The values of EC150 from the dose response curve are determined for each test compound. The EC150 is the compound concentration at which 150% activity of control (100%) is reached.

Question: For `COc1cc(N2CCC(c3cccc(Cl)c3)C2=O)ccc1-c1cnco1` (stereo not drawn) [Example 38, 3-(3-Chlorophenyl)-1-[3-methoxy-4-(1,3-oxazol-5-yl)phenyl]pyrrolidin-2-one], which EC (150% of control) is on record?
Answer: 1.35 µM

Question: Which EC (150% of control) does the source give for `O=C1C(c2ccc(Cl)cc2)CCN1c1ccc(-c2cn[nH]c2)cc1` (stereo not drawn) [Example 15, 3-(4-Chlorophenyl)-1-[4-(1H-pyrazol-4-yl)phenyl]pyrrolidin-2-one] here?
Answer: 0.384 µM

Question: `COc1cccc(C2CCN(c3ccc(-c4ccncc4)cc3)C2=O)c1` (stereo not drawn) [Example 71, 3-(3-Methoxyphenyl)-1-(4-pyridin-4-ylphenyl)pyrrolidin-2-one] was tested. Which EC (150% of control) did it give?
Answer: 0.0155 µM

Question: With `COc1cc(N2CCN(Cc3ccccc3C(F)(F)F)C2=O)ccc1-c1ccncc1` [Example 54, 1-[3-Methoxy-4-(4-pyridyl)phenyl]-3-[[2-(trifluoromethyl)phenyl]methyl]imidazolidin-2-one] as the compound, how does the EC (150% of control) read?
Answer: 0.0351 µM

Question: For `COc1cc(N2CCC(c3ccccc3OC)C2=O)ccc1-c1cnco1` (stereo not drawn) [Example 41, 1-[3-Methoxy-4-(1,3-oxazol-5-yl)phenyl]-3-(2-methoxyphenyl)pyrrolidin-2-one], which EC (150% of control) is on record?
Answer: 2.91 µM

Question: How did the EC (150% of control) turn out when `COc1cc(N2CCN(Cc3ccncc3)C2=O)ccc1-c1ccncc1` [Example 55, 1-[3-Methoxy-4-(4-pyridyl)phenyl]-3-(4-pyridylmethyl)imidazolidin-2-one] was run?
Answer: 0.377 µM

Question: With `COc1cccc(CN2CCN(c3ccc(-c4cnco4)c(OC)c3)C2=O)c1` [Example 68, 1-[3-Methoxy-4-(1,3-oxazol-5-yl)phenyl]-3-[(3-methoxyphenyl)methyl]imidazolidin-2-one] as the compound, how does the EC (150% of control) read?
Answer: 0.316 µM

Question: Which EC (150% of control) does the source give for `COc1cc(N2CCN(Cc3cccc(OC(F)(F)F)c3)C2=O)ccc1-c1cn[nH]c1` [Example 21, 1-[3-Methoxy-4-(1H-pyrazol-4-yl)phenyl]-3-[[3-(trifluoromethoxy)phenyl]methyl]imidazolidin-2-one] here?
Answer: 0.0092 µM

Question: Which EC (150% of control) does the source give for `COc1ccccc1CN1CCN(c2ccc(-c3cn[nH]c3)c(OC)c2)C1=O` [Example 42, 1-[(2-Methoxyphenyl)methyl]-3-[3-methoxy-4-(1H-pyrazol-4-yl)phenyl]imidazolidin-2-one] here?
Answer: 0.308 µM

Question: With `COc1cc(N2CCN(CCc3cccc(Cl)c3)C2=O)ccc1-c1cn[nH]c1` [Example 49, 1-[2-(3-Chlorophenyl)ethyl]-3-[3-methoxy-4-(1H-pyrazol-4-yl)phenyl]imidazolidin-2-one] as the compound, how does the EC (150% of control) read?
Answer: 1.73 µM

Question: `O=C1N(Cc2cccc(F)c2)CCN1c1ccc(-c2cnco2)cc1` [Example 72, 1-[(3-Fluorophenyl)methyl]-3-[4-(1,3-oxazol-5-yl)phenyl]imidazolidin-2-one] was tested. Which EC (150% of control) did it give?
Answer: 1.07 µM

Question: For `CCC1(c2ccccc2)CCN(c2ccc(-c3cnco3)c(OC)c2)C1=O` (stereo not drawn) [Example 1, 3-Ethyl-1-(3-methoxy-4-(oxazol-5-yl)phenyl)-3-phenylpyrrolidin-2-one], which EC (150% of control) is on record?
Answer: 3.23 µM

Question: For `COc1cc(N2CCC(c3cccc(F)c3)C2=O)ccc1-c1cn[nH]c1` (stereo not drawn) [Example 26, 3-(3-Fluorophenyl)-1-(3-methoxy-4-(1H-pyrazol-4-yl)phenyl)pyrrolidin-2-one], which EC (150% of control) is on record?
Answer: 0.0776 µM

Question: For `COc1cccc(CN2CCN(c3ccc(-c4cnco4)cc3)C2=O)c1` [Example 59, 1-[(3-Methoxyphenyl)methyl]-3-[4-(1,3-oxazol-5-yl)phenyl]imidazolidin-2-one], which EC (150% of control) is on record?
Answer: 0.122 µM

Question: For `COc1cc(N2CCC(c3cccc(C(F)(F)F)c3)C2=O)ccc1-c1cnco1` (stereo not drawn) [Example 56, 1-[3-Methoxy-4-(1,3-oxazol-5-yl)phenyl]-3-[3-(trifluoromethyl)phenyl]pyrrolidin-2-one], which EC (150% of control) is on record?
Answer: 1.86 µM

Question: Which EC (150% of control) does the source give for `COc1cc(N2CCN(Cc3cccc(Cl)c3)C2=O)ccc1-c1cn[nH]c1` [Example 18, 1-[(3-Chlorophenyl)methyl]-3-[3-methoxy-4-(1H-pyrazol-4-yl)phenyl]imidazolidin-2-one] here?
Answer: 0.395 µM

Question: With `COc1ccccc1CCN1CCN(c2ccc(-c3cn[nH]c3)c(OC)c2)C1=O` [Example 44, 1-[2-(2-Methoxyphenyl)ethyl]-3-[3-methoxy-4-(1H-pyrazol-4-yl)phenyl]imidazolidin-2-one] as the compound, how does the EC (150% of control) read?
Answer: 1.98 µM

Question: With `O=C1C(c2ccccc2F)CCN1c1ccc(-c2cnco2)cc1` (stereo not drawn) [Example 57, 3-(2-Fluorophenyl)-1-[4-(1,3-oxazol-5-yl)phenyl]pyrrolidin-2-one] as the compound, how does the EC (150% of control) read?
Answer: 0.525 µM

Question: Which EC (150% of control) does the source give for `COc1cc(N2CCN(CCc3ccccc3Cl)C2=O)ccc1-c1cn[nH]c1` [Example 45, 1-[2-(2-Chlorophenyl)ethyl]-3-[3-methoxy-4-(1H-pyrazol-4-yl)phenyl]imidazolidin-2-one] here?
Answer: 0.136 µM

Question: Which EC (150% of control) does the source give for `COc1cc(N2CCC(c3ccccc3F)C2=O)ccc1-c1cnco1` (stereo not drawn) [Example 58, 3-(2-Fluorophenyl)-1-[3-methoxy-4-(1,3-oxazol-5-yl)phenyl]pyrrolidin-2-one] here?
Answer: 0.23 µM

Question: How did the EC (150% of control) turn out when `COc1cccc(CN2CCCN(c3ccc(-c4cn[nH]c4)c(OC)c3)C2=O)c1` [Example 7, 1-[(3-Methoxyphenyl)methyl]-3-[3-methoxy-4-(1H-pyrazol-4-yl)phenyl]hexahydropyrimidin-2-one] was run?
Answer: 0.114 µM

Question: Which EC (150% of control) does the source give for `COc1cccc(CN2CCN(c3ccc(-c4cn[nH]c4)c(C)c3)C2=O)c1` [Example 28, 1-[(3-Methoxyphenyl)methyl]-3-[3-methyl-4-(1H-pyrazol-4-yl)phenyl]imidazolidin-2-one] here?
Answer: 1.22 µM

Question: `COc1cc(N2CCN(Cc3cccnc3)C2=O)ccc1-c1cn[nH]c1` [Example 48, 1-[3-Methoxy-4-(1H-pyrazol-4-yl)phenyl]-3-(3-pyridylmethyl)imidazolidin-2-one] was tested. Which EC (150% of control) did it give?
Answer: 0.119 µM

Question: Which EC (150% of control) does the source give for `COc1cccc(CN2CCN(c3ccc(-c4cn[nH]c4)c(OC)c3)C2=O)c1` [Example 11, 1-[(3-Methoxyphenyl)methyl]-3-[3-methoxy-4-(1H-pyrazol-4-yl)phenyl]imidazolidin-2-one] here?
Answer: 0.0239 µM

Question: With `COc1cc(N2CCC(c3ccccc3Cl)C2=O)ccc1-c1cnco1` (stereo not drawn) [Example 4, 3-(2-Chlorophenyl)-1-(3-methoxy-4-oxazol-5-yl-phenyl)pyrrolidin-2-one] as the compound, how does the EC (150% of control) read?
Answer: 0.678 µM

Question: With `COc1cc(N2CCN(Cc3cccnc3)C2=O)ccc1-c1ccncc1` [Example 66, 1-[3-Methoxy-4-(4-pyridyl)phenyl]-3-(3-pyridylmethyl)imidazolidin-2-one] as the compound, how does the EC (150% of control) read?
Answer: 0.4 µM

Question: With `COc1cc(N2CCN(Cc3cccc(C)c3)C2=O)ccc1-c1ccncc1` [Example 65, 1-[3-Methoxy-4-(4-pyridyl)phenyl]-3-(m-tolylmethyl)imidazolidin-2-one] as the compound, how does the EC (150% of control) read?
Answer: 0.0298 µM

Question: With `COc1cc(N2CCN(Cc3ccccc3F)C2=O)ccc1-c1cn[nH]c1` [Example 33, 1-[(2-Fluorophenyl)methyl]-3-[3-methoxy-4-(1H-pyrazol-4-yl)phenyl]imidazolidin-2-one] as the compound, how does the EC (150% of control) read?
Answer: 0.225 µM

Question: For `COc1cc(N2CCN(Cc3cccc(C(F)(F)F)c3)C2=O)ccc1-c1cn[nH]c1` [Example 20, 1-[3-Methoxy-4-(1H-pyrazol-4-yl)phenyl]-3-[[3-(trifluoromethyl)phenyl]methyl]imidazolidin-2-one], which EC (150% of control) is on record?
Answer: 0.0086 µM

Question: With `COc1cccc(CN2CCN(c3ccc(-c4cn[nH]c4)cc3F)C2=O)c1` [Example 30, 1-[2-Fluoro-4-(1H-pyrazol-4-yl)phenyl]-3-[(3-methoxyphenyl)methyl]imidazolidin-2-one] as the compound, how does the EC (150% of control) read?
Answer: 0.0416 µM

Reference: patent US9714239B2, “N-phenyl-lactam derivatives capable of stimulating neurogenesis and their use in the treatment of neurological disorders” (Hoffmann-La Roche Inc., priority 2014, dated 2017)
